One test addresses hCB1 (Homo sapiens, UniProt P21554). The test can be described thus: Antagonism of CB1 receptors expressed in CHO cells, cAMP assay against CP 55,940 (Protocol IX.1). The following applies: h-CB1/CHO cells, cAMP, vs 30 nM CP 55,940; for inhibition at 10 µM: read-out: hCB1 Antagonism. Type of test: cell-based. Also noted: expressed in transfected cells; host or cells: CHO (h-CB1/CHO, G418-selected). A general note: Cyclic AMP is a second messenger, typically raised through Gs and lowered through Gi signalling.

For another test, the target named is hCB2 (Homo sapiens, UniProt P34972). The test can be described thus: Antagonism of CB2 receptors expressed in CHO cells, cAMP assay against CP 55,940 (Protocol IX.1). The settings on record: CHO, h-CB2/CHO cells, vs 10 nM CP 55,940. Type of test: cell-based. Also noted: expressed in transfected cells; host or cells: CHO (h-CB2/CHO, G418-selected). An outline of the steps:
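h-CB2/CHO cells in Krebs buffer with 0.1% FAF-BSA and 1 mM IBMX were pre-incubated 10 min with antagonist, then stimulated 30 min at room temperature with 10 nM CP 55,940 plus 10 μM forskolin. cAMP quantified by chemiluminescence; values from nonlinear regression of dose–response curves.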

The next test has as its target CB1 (Rattus norvegicus, UniProt P20272). The test can be described thus: GTPγS binding assay, CB1 functional assay in rat cerebellar membrane (Protocol VIII). The test is classed as biochemical. The settings on record: for activation at 1 µM: 1 h, read-out: Per Se % Stimulation; for inhibition at 1 µM: read-out: % Inhibition of WIN-55212-2 induced stimulation. Also noted: 10 μg rat cerebellum membrane; from tissue; host or cells: rat cerebellum membrane, prepared in-house. An outline of the steps: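 Rat cerebellar membranes (10 μg) incubated 1 h at 30 °C with 0.2 nM [35S]GTPγS, 50 μM GDP, and compound at 1 μM or 300 nM, alone or with 1 μM WIN 55,212-2, in Tris/MgCl2/EGTA/NaCl pH 7.4. Filter-bound radioactivity counted; percent stimulation calculated against basal specific binding (nonspecific defined by 10 μM GTPγS).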

Where [1] appears, read: GTPγS binding over basal, rat cerebellar membrane, tested at 1 uM.
[2] abbreviates: GTPγS binding, tested at 1 uM in presence of 1 μM WIN 55,212-2.

Sequence of CB1 (P20272 whole entry): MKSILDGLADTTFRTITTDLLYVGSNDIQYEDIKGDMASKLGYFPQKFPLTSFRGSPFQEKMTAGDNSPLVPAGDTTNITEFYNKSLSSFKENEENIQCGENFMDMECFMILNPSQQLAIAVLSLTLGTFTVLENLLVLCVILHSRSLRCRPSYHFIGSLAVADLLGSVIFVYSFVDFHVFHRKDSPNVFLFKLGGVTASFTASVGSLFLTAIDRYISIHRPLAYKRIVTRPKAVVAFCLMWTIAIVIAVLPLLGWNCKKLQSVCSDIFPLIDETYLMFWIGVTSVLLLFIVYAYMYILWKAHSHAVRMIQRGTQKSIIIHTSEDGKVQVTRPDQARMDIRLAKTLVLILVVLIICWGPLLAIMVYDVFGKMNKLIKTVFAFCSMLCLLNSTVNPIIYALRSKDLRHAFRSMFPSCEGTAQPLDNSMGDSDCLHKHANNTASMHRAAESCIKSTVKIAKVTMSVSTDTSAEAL
Sequence of hCB1 (P21554 whole entry): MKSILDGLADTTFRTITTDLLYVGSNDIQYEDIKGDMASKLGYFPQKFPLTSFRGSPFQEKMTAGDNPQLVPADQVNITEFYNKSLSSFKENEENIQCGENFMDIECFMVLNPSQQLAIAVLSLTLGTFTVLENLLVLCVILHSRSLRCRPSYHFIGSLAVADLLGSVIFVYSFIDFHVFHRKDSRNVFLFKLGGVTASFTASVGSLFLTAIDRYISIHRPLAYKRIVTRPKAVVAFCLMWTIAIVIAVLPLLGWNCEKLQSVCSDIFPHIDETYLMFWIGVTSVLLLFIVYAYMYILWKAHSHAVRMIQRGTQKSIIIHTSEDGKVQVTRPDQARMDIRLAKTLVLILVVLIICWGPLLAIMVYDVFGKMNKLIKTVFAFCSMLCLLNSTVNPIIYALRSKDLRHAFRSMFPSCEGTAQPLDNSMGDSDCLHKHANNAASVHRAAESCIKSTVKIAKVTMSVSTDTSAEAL
Sequence of hCB2 (P34972 whole entry): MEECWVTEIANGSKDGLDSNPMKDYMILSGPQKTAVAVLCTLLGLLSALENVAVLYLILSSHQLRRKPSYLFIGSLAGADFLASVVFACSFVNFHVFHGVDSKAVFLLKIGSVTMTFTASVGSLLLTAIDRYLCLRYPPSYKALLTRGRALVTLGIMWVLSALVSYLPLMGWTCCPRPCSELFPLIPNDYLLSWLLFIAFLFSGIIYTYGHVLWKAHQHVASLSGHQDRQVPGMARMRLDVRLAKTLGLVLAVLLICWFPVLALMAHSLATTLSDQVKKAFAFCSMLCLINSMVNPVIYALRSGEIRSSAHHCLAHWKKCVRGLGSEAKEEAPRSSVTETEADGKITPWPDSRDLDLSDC

Take `O=C(NC1CCCCC1)c1nn(-c2ccc(Br)cc2)c2c1C1CCC2C1` (stereo not drawn) [Example 275, N(3)-Cyclohexyl-1-(4-bromophenyl)-4,5,6,7-tetrahydro-1H-4,7-methano-indazole-3-carboxamide]: the results for the inhibition at 10 µM on hCB1 (at 10 uM) and against hCB2 were 0% and 19.1%, respectively.

Take `O=C(NCc1ccc(Cl)cc1Cl)c1nn(-c2ccc(Cl)cc2Cl)c2c1C1CCC2C1` (stereo not drawn) [Example 251, N(3)-(2,4-Dichlorobenzyl)-1-(2,4-dichlorophenyl)-4,5,6,7-tetrahydro-1H-4,7-methano-indazole-3-carboxamide]: the results for the inhibition at 10 µM on hCB1 (at 10 uM) and on hCB2 were 0% and 40.8%, respectively.

For `CN(NC(=O)c1nn(-c2ccc(Cl)cc2)c2c1C1CCC2C1)C1CCCCC1` (stereo not drawn) [Example 213, N(3)-[(N-Cyclohexyl-N-methyl)amino]-1-(4-chlorophenyl)-4,5,6,7-tetrahydro-1H-4,7-methano-indazole-3-carboxamide], the results for the inhibition at 10 µM at hCB1 (at 10 uM) and against hCB2 were 0% and 22.1%, respectively.

Consider `O=C(NNc1ccccc1Cl)c1nn(-c2ccc(Cl)cc2Cl)c2c1C1CCC2C1` (stereo not drawn) [Example 257, N(3)-[(2-Chlorophenyl)amino]-1-(2,4-dichlorophenyl)-4,5,6,7-tetrahydro-1H-4,7-methano-indazole-3-carboxamide], for which the activation at 1 µM on CB1 (setting [1]) is -5.1%. Moreover, on CB1 (setting [2]), the inhibition at 1 µM is 48.3%. The same compound yielded an inhibition at 10 µM on hCB2 of 37.5%.

As to `O=C(NCc1ccccc1Cl)c1nn(-c2ccc(Cl)cc2)c2c1C1CCC2C1` (stereo not drawn) [Example 221, N(3)-(2-Chlorobenzyl)-1-(4-chlorophenyl)-4,5,6,7-tetrahydro-1H-4,7-methano-indazole-3-carboxamide], the activation at 1 µM on CB1 (setting [1]) is -16.7%. Further, the inhibition at 1 µM on CB1 (setting [2]) is 95.7%. The figures for the inhibition at 10 µM on hCB1 (at 10 uM) and on hCB2 were 0% and 30.1%, respectively.

For `O=C(NNc1ccccc1Br)c1nn(-c2ccc(Cl)cc2Cl)c2c1C1CCC2C1` (stereo not drawn) [Example 263, N(3)-[(2-Bromophenyl)amino]-1-(2,4-dichlorophenyl)-4,5,6,7-tetrahydro-1H-4,7-methano-indazole-3-carboxamide], on hCB1 (at 1 uM), the inhibition at 1 µM came out at 72.1%. Besides, on hCB2, the inhibition at 10 µM is 27.1%.

As for `O=C(NN1CCCCC1)c1nn(-c2ccc(Cl)cc2)c2c1C1CC3CC(C1)CC2C3` [Example 140, N(7)-Piperidino-5-(4′-chlorophenyl)-5,6-diazatetracyclo[7.3.1.1^3,11.0^4,8]tetradeca-4(8)-6-diene-7-carboxamide], the “Per Se % Stimulation” value on CB1 (setting [1]) is reported as 24.9%. In addition, on CB1 (setting [2]), the “% Inhibition of WIN-55212-2 induced stimulation” value was 71.9%. Further, the “hCB1 Antagonism” value at hCB1 (at 10 uM) was found to be 19.31% at.

Take `O=C(NNc1ccc(Cl)cc1Cl)c1nn(-c2ccc(Cl)cc2Cl)c2c1C1CCC2C1` (stereo not drawn) [Example 260, N(3)-[(2,4-Dichlorophenyl)amino]-1-(2,4-dichlorophenyl)-4,5,6,7-tetrahydro-1H-4,7-methano-indazole-3-carboxamide]: the activation at 1 µM on CB1 (setting [1]) amounted to 38%. Moreover, the inhibition at 1 µM on CB1 (setting [2]) was determined as 78.8%. This compound registered an inhibition at 10 µM on hCB2 of 34.8%.

The values are drawn from patent US7923465B2, “Cannabinoid receptor ligands, pharmaceutical compositions containing them, and process for their preparation” (priority 2005, dated 2011).
